Measured values from ChEMBL document CHEMBL5252657, “Artefenomel Regioisomer RLA-3107 Is a Promising Lead for the Discovery of Next-Generation Endoperoxide Antimalarials” (ACS Med Chem Lett, 2023).
Calls of active or inactive are those of the source. No cut-off for these calls is given here.

Key:
Plasmodium falciparum = assay: Antiplasmodial activity against chloroquine-resistant ring stage Plasmodium falciparum W2 infected in human erythrocytes assessed as reduction in parasite growth incubated for 48 hrs by YOYO-1 dye based flow cytometric analysis; format: functional, organism-based; settings: W2, Erythrocyte
Plasmodium berghei [1] = assay: Antiplasmodial activity against Plasmodium berghei infected in Swiss Webster mouse model assessed as reduction in parasitemia at 4 mg/kg, po administered once daily for 4 days and measured after 30 days by Giemsa staining based microscopic analysis; format: functional, organism-based; settings: time 30.0 day
Plasmodium berghei [2] = assay: Antiplasmodial activity against Plasmodium berghei infected in Swiss Webster mouse model assessed as reduction in parasitemia at 2 mg/kg, po administered once daily for 4 days and measured after 11 days by Giemsa staining based microscopic analysis; format: functional, organism-based; settings: time 11.0 day
Plasmodium berghei [3] = assay: Antiplasmodial activity against Plasmodium berghei infected in Swiss Webster mouse model assessed as reduction in parasitemia at 6 mg/kg, po administered once daily for 4 days and measured after 30 days by Giemsa staining based microscopic analysis; format: functional, organism-based; settings: time 30.0 day
Plasmodium berghei [4] = assay: Antiplasmodial activity against Plasmodium berghei infected in Swiss Webster mouse model assessed as reduction in parasitemia at 20 mg/kg, po administered as single dose and measured after 30 days by Giemsa staining based microscopic analysis; format: functional, organism-based; settings: time 30.0 day
Plasmodium berghei [5] = assay: Antiplasmodial activity against Plasmodium berghei infected in Swiss Webster mouse model assessed as reduction in parasitemia at 6 mg/kg, po administered once daily for 4 days and measured after 11 days by Giemsa staining based microscopic analysis; format: functional, organism-based; settings: time 11.0 day
Plasmodium berghei [6] = assay: Antiplasmodial activity against Plasmodium berghei infected in Swiss Webster mouse model assessed as reduction in parasitemia at 4 mg/kg, po administered once daily for 4 days and measured after 11 days by Giemsa staining based microscopic analysis; format: functional, organism-based; settings: time 11.0 day
Plasmodium berghei [7] = assay: Antiplasmodial activity against Plasmodium berghei infected in Swiss Webster mouse model assessed as reduction in parasitemia at 30 mg/kg, po administered as single dose and measured after 30 days by Giemsa staining based microscopic analysis; format: functional, organism-based; settings: time 30.0 day
[8] = Stability in human liver microsomes assessed as intrinsic clearance at 1 uM measured upto 60 mins by LC-MS/MS analysis; format: ADME, Microsome; settings: read-out: CLH
Plasmodium berghei [9] = assay: Antiplasmodial activity against Plasmodium berghei infected in Swiss Webster mouse model assessed as reduction in parasitemia at 30 mg/kg, po administered as single dose and measured after 11 days by Giemsa staining based microscopic analysis; format: functional, organism-based; settings: time 11.0 day
Plasmodium berghei [10] = assay: Antiplasmodial activity against Plasmodium berghei infected in Swiss Webster mouse model assessed as reduction in parasitemia at 10 mg/kg, po administered once daily for 4 days and measured after 30 days by Giemsa staining based microscopic analysis; format: functional, organism-based; settings: time 30.0 day
Plasmodium berghei [11] = assay: Antiplasmodial activity against Plasmodium berghei infected in Swiss Webster mouse model assessed as reduction in parasitemia at 2 mg/kg, po administered once daily for 4 days and measured after 30 days by Giemsa staining based microscopic analysis; format: functional, organism-based; settings: time 30.0 day
Plasmodium berghei [12] = assay: Antiplasmodial activity against Plasmodium berghei infected in Swiss Webster mouse model assessed as reduction in parasitemia at 80 mg/kg, po administered as single dose and measured after 30 days by Giemsa staining based microscopic analysis; format: functional, organism-based; settings: time 30.0 day
Plasmodium berghei [13] = assay: Antiplasmodial activity against Plasmodium berghei infected in Swiss Webster mouse model assessed as reduction in parasitemia at 80 mg/kg, po administered as single dose and measured after 11 days by Giemsa staining based microscopic analysis; format: functional, organism-based; settings: time 11.0 day
Plasmodium berghei [14] = assay: Antiplasmodial activity against Plasmodium berghei infected in Swiss Webster mouse model assessed as reduction in parasitemia at 10 mg/kg, po administered once daily for 4 days and measured after 11 days by Giemsa staining based microscopic analysis; format: functional, organism-based; settings: time 11.0 day
Plasmodium berghei [15] = assay: Antiplasmodial activity against Plasmodium berghei infected in Swiss Webster mouse model assessed as reduction in parasitemia at 40 mg/kg, po administered as single dose and measured after 11 days by Giemsa staining based microscopic analysis; format: functional, organism-based; settings: time 11.0 day
Plasmodium berghei [16] = assay: Antiplasmodial activity against Plasmodium berghei infected in Swiss Webster mouse model assessed as reduction in parasitemia at 40 mg/kg, po administered as single dose and measured after 30 days by Giemsa staining based microscopic analysis; format: functional, organism-based; settings: time 30.0 day
[17] = Aqueous solubility of the compound in PBS at pH 7.4; format: physicochemical

| Compound | EC50 (Plasmodium falciparum) | Activity (Plasmodium berghei [1]) | Activity (Plasmodium berghei [2]) | Activity (Plasmodium berghei [3]) | Activity (Plasmodium berghei [4]) | Activity (Plasmodium berghei [5]) | Activity (Plasmodium berghei [6]) | Activity (Plasmodium berghei [7]) | microsomal CLint at 1 µM [8] | Activity (Plasmodium berghei [9]) | Activity (Plasmodium berghei [10]) | Activity (Plasmodium berghei [11]) | Activity (Plasmodium berghei [12]) | Activity (Plasmodium berghei [13]) | Activity (Plasmodium berghei [14]) | Activity (Plasmodium berghei [15]) | Activity (Plasmodium berghei [16]) | solubility [17] |
| --- | --- | --- | --- | --- | --- | --- | --- | --- | --- | --- | --- | --- | --- | --- | --- | --- | --- | --- |
| C[C@@H]1CC[C@H]2[C@@H](C)C(=O)O[C@@H]3O[C@@]4(C)CC[C@@H]1[C@]32OO4 [ARTEMISININ] | 17.3 nM | – | – | – | – | – | – | – | – | – | – | – | – | – | – | – | – | – |
| c1cc([C@H]2CCC[C@@]3(C2)OOC2(O3)C3CC4CC(C3)CC2C4)ccc1OCCN1CCOCC1 (stereo not given in full) | 24.1 nM | inactive | inactive | inactive | inactive | inactive | inactive | inactive | 21.3 µL/min/mg | Active | inactive | inactive | Active | Active | – | – | – | – |
| c1cc([C@H]2CC[C@@]3(CC2)OOC2(O3)C3CC4CC(C3)CC2C4)ccc1OCCN1CCOCC1 (stereo not given in full) | 11.2 nM | – | – | Active | Active | Active | Active | Active | – | Active | Active | – | Active | Active | Active | Active | Active | < 2.5 µM |
| O=C([O-])Cc1ccccc1Nc1c(Cl)cccc1Cl.[Na+] [DICLOFENAC SODIUM] | – | – | – | – | – | – | – | – | – | – | – | – | – | – | – | – | – | 199 µM |
